{"source": "patent US8568690B2", "about": "“MRI contrast agents and high-throughput screening by MRI” (The Board of Trustees of the University of Illinois, priority 2007, dated 2013)", "key": {"[1]": {"tested_on": "adenosine aptamer (linker-Adap) CLIO sensor", "assay": "Adenosine aptamer CLIO sensor, T2 weighted MRI and T2 relaxation time", "assay_type": "binding", "details": "for change in contrast of sensor (selectivity control): sensor incubated with 5 mM nucleoside", "protocol": "SPIO nanoparticles were chosen as the contrast agents to functionalize by aptamers since it is efficient at dephasing the spins of neighboring water protons, leading to change in T2 [36, 37]. It has also been shown that oligonucleotide functionalized cross-linked dextran coated superparamagnetic iron oxide nanoparticles (CLIOs) form clusters when linked with a complementary sequence. The adenosine sensor comprised CLIO aggregates that are prepared using three components: CLIO functionalized with 3′- or 5′-thiol modified DNA, called 3′Adap-CLIO and 5′Adap-CLIO respectively and a linker DNA, called linker-Adap that can hybridize to both the 3′- and 5′Adap-CLIOs, leading to the formation of clusters.\nOne segment of the linker is the sequence for the adenosine aptamer. Seven bases of this aptamer are involved in the hybridization with the 5′Adap-CLIO. In the presence of adenosine the aptamer undergoes structure switching in order to form the adenosine binding pocket, which results in disruption of base pairing interactions with 5′Adap-CLIO. The five remaining base pairs between the linker-Adap and the 5′Adap-CLIO are not enough to hold them together at room temperature leading to disassembly of clusters. The dispersed nanoparticles result in a higher T2 as compared to the clusters; and thus the adenosine induced disassembly can be monitored as an increase in T2 values and enhancement in brightness of T2 weighted MRI images.\nThe prepared sensor was then aliquoted into the wells of a microplate, with progressively increasing amount of adenosine and a T2 weighted MRI image was obtained. An increase in adenosine concentration led to an increase in the brightness of the image, as illustrated in line a) of FIG. 6. This increase was attributed to the increase in T2 due to disassembly of CLIO clusters into smaller particles. It is worth noting that even at 10 μM adenosine a detectable change in contrast was observed.\n250 μl of sample was aliquoted into the wells of a microplate and varying amounts of adenosine was added in each well. The samples with serum were prepared by adding 10% human serum. Volume change was compensated by addition of distilled water."}, "[2]": {"target": "Adenosine Deaminase (ADA) (Bos taurus, UniProt P56658)", "sequence (P56658 whole entry)": "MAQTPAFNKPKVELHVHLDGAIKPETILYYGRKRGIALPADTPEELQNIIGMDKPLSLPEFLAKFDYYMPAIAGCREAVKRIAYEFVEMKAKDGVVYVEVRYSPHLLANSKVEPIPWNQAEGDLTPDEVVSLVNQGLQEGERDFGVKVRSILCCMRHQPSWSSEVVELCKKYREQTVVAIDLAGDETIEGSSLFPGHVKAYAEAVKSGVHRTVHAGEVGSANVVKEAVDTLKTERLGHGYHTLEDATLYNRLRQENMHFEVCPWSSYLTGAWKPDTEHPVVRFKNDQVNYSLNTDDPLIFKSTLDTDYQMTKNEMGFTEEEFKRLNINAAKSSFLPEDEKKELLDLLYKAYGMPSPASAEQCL", "details": "adenosine and test molecule, tris-acetate buffer pH 8.0 (FIG. 19) and human serum (FIG. 20)", "quoted_text": "The screening of ADA inhibitors can be monitored with an aptamer system whereby an MRI signal is generated when a molecule inhibits the ADA.\nFor example, an aggregate of paramagnetic particles can be used to monitor the screening. To this end, a mixture including paramagnetic particles that are attached to oligonucleotides is prepared. A bridge including an aptamer that binds adenosine is also present in the mixture. If the tested molecule is not effective in inhibiting ADA, adenosine is transformed into inosine, and the complementary portions of the oligonucleotides are hybridized to the bridge. Aggregation of the particles into an aggregate follows, and an increase in MRI contrast is not observed.\nThe resulting dehybridization leads to deaggregation of the aggregate, generating an MRI signal (FIG. 18).\nThe screening was monitored by incubating with aggregates that included CLIO nanoparticles attached to polynucleotides and a bridge comprising an ADA-binding aptamer. The screening of FIG. 19 was carried out in the presence of tris-acetate buffer at pH 8.0. […]\nT2-weighted MRI images were obtained on a 4.7 T NMR instrument using a spin echo pulse sequence with variable echo time (TE=20−100 ms) and a repetition time (TR) of 2000 ms. Relaxation times were measured on the same instrument with the Carr-Purcell-Meiboom-Gill (CPMG) pulse sequence."}}}
{"compound": "O=c1ccn([C@@H]2O[C@H](CO)[C@@H](O)[C@H]2O)c(=O)[nH]1", "note": "[uridine]", "values": [{"measurement": "change in contrast of sensor (selectivity control)", "setting": "[1]", "value": "a significant change in contrast was not observed"}]}
{"compound": "Nc1ccn([C@@H]2O[C@H](CO)[C@@H](O)[C@H]2O)c(=O)n1", "note": "[control molecule 37, Cytidine]", "values": [{"measurement": "change in contrast of sensor (selectivity control)", "setting": "[1]", "value": "a significant change in contrast was not observed"}]}
{"compound": "erythro-9-(2-hydroxy-3-nonyl)adenine hydrochloride [EHNA]", "values": [{"measurement": "ADA inhibition read as deaggregation of aggregates / increase in MRI brightness", "setting": "[2]", "value": "inhibited the conversion of adenosine into inosine"}]}
{"compound": "Nc1nc2c(ncn2[C@@H]2O[C@H](CO)[C@@H](O)[C@H]2O)c(=O)[nH]1", "note": "[guanosine]", "values": [{"measurement": "change in contrast of sensor (selectivity control)", "setting": "[1]", "value": "a significant change in contrast was not observed"}]}
{"compound": "Nc1ncnc2c1ncn2[C@@H]1O[C@H](CO)[C@@H](O)[C@H]1O", "note": "[adenosine, Adenosine]", "values": [{"measurement": "MRI contrast of sensor in serum", "setting": "[1]; 10% human serum, adenosine concentration gradient", "value": "the contrast within the concentration gradient increases"}, {"measurement": "adenosine concentration at which a detectable change in contrast was observed", "setting": "[1]; T2 weighted MRI image, sensor ~20 μg Fe ml-1", "value": 10, "unit": "µM"}, {"measurement": "T2 relaxation time of sensor", "setting": "[1]; at 2.5 Mm adenosine, 36 ms at 0 adenosine", "value": 63, "unit": "ms"}]}
